Measured values as given in US6642392B1 (priority 1997, dated 2003).

Columns and labels:
Format in all cases: in vivo
[1] = tested on: Eiysiphe graminis f. sp. tritici; test: Test A: wheat powdery mildew, preventive spray on wheat seedlings; settings: for Test A disease control rating: wheat powdery mildew, 100 = 100% disease control, 0 = no control relative to controls, unmarked entries (standard test concentration); for Test A disease control rating (100 = 100% disease control, 0 = no disease control): wheat seedlings sprayed to run-off, inoculated the following day, rating relative to controls, unmarked compounds (standard test rate)
Description: (§1) The resulting test suspensions were then used in the following tests. […]
The test suspension was sprayed to the point of run-off on wheat seedlings. The following day the seedlings were inoculated with a spore dust of Eiysiphe graminis f. sp. tritici, (the causal agent of wheat powdery mildew) and incubated in a growth chamber at 20° C. for 7 days, after which disease ratings were made.
(§2) Results for Tests A-E are given in Table A. In the table, a rating of 100 indicates 100% disease control and a rating of 0 indicates no disease control (relative to the controls). A dash (-) indicates no test results. ND indicates disease control not determined due to phytotoxicity.

[2] = tested on: Pyricularia oryzae; settings: for Test C disease control rating: rice blast, 100 = 100% disease control, 0 = no control, unmarked entries (standard test concentration); for Test C disease control rating (100 = 100% disease control, 0 = no disease control): rice seedlings sprayed to run-off, inoculated the following day, rating relative to controls, unmarked compounds (standard test rate)
[3] = tested on: Phytophthora infestans; settings: for Test D disease control rating: tomato late blight, 100 = 100% disease control, 0 = no control, unmarked entries (standard test concentration); for Test D disease control rating (100 = 100% disease control, 0 = no disease control): tomato seedlings sprayed to run-off, inoculated the following day, rating relative to controls, unmarked compounds (standard test rate)
[4] = tested on: Puccinia recondita; test: Test B: wheat leaf rust, preventive spray on wheat seedlings; settings: for Test B disease control rating: wheat leaf rust, 100 = 100% disease control, 0 = no control, unmarked entries (standard test concentration); for Test B disease control rating (100 = 100% disease control, 0 = no disease control): wheat seedlings sprayed to run-off, inoculated the following day, rating relative to controls, unmarked compounds (standard test rate)
Description: as §1
The test suspension was sprayed to the point of run-off on wheat seedlings. The following day the seedlings were inoculated with a spore suspension of Puccinia recondita (the causal agent of wheat leaf rust) and incubated in a saturated atmosphere at 20° C. for 24 h, and then moved to a growth chamber at 20° C. for 6 days, after which disease ratings were made.
as §2

[5] = tested on: Botrytis cinerea; test: Test E: gray mold, preventive spray on cucumber seedlings; settings: gray mold on cucumber; 100 = 100% disease control, 0 = no control; unmarked entries (standard test concentration)
Description: The resulting test suspensions were then used in the following tests. Spraying these 200 ppm test suspensions to the point of run-off on the test plants is the equivalent of a rate of 500 g/ha.
The test suspension was sprayed to the point of run-off on cucumber seedlings. The following day the seedlings were inoculated with a spore suspension of Botrytis cinerea (the causal agent of gray mold on many crops) and incubated in a saturated atmosphere at 20° C. for 48 h, and moved to a growth chamber at 20° C. for 5 days, after which disease ratings were made.
as §2

Structure (SMILES)	Test A disease control rating [1] [%]	Test C disease control rating [2] [%]	Test D disease control rating [3] [%]	Test B disease control rating [4] [%]	Test E disease control rating [5] [%]	Test A disease control rating (100 = 100% disease control, 0 = no disease control) [1] [%]	Test C disease control rating (100 = 100% disease control, 0 = no disease control) [2] [%]	Test D disease control rating (100 = 100% disease control, 0 = no disease control) [3] [%]	Test B disease control rating (100 = 100% disease control, 0 = no disease control) [4] [%]
CC(COc1c(Cl)cc(F)cc1Cl)NC(=O)C(C#N)C(C)(C)C (mixture of isomers) [compound 197]	59	86	0	0	–	–	–	–	–
CCC1(C(=O)NC(C)COc2ccccc2F)C(C)C1(Cl)Cl (mixture of isomers) [78b]	84	99	–	0	0	–	–	–	–
CC(COc1c(Br)cc(F)cc1Br)NC(=O)C(C#N)C(C)(C)C (mixture of isomers) [compound 196]	0	86	0	0	–	–	–	–	–
CCC1(C(=O)NC(C)COc2cc(Cl)ccc2F)C(C)C1(Cl)Cl (stereo not drawn) [compound 252]	–	–	–	–	–	0	99	5	0
CCCc1ccccc1OCC(C)NC(=O)C(C#N)C(C)(C)C (mixture of isomers) [21b]	37	99	–	27	0	–	–	–	–
CCC1(C(=O)NC(C)COc2cc(F)c(F)cc2Br)C(C)C1(Cl)Cl (stereo not drawn) [compound 235]	–	–	–	–	–	0	91	0	0
CCC1(C(=O)NC(C)COc2ccc(F)c(F)c2F)C(C)C1(Cl)Cl (stereo not drawn) [compound 238]	–	–	–	–	–	62	74	0	0
Cc1ccc(F)c(OCC(C)NC(=O)C(C#N)C(C)(C=CF)CF)c1 (mixture of isomers) [compound 226]	–	–	–	–	–	0	100	0	0
C=CC(C)(C)C(C#N)C(=O)N[C@H](C)COc1cc(Cl)ccc1F (single isomer, unassigned) [200a]	0	100	5	0	–	–	–	–	–
CC(COc1cc(Cl)ccc1F)NC(=O)C(C#N)C(C)(C)C=CF (mixture of isomers) [compound 224]	–	–	–	–	–	85	100	5	0
CCC1(C(=O)NC(C)COc2cccc(Br)c2)C(C)C1(Cl)Cl (mixture of isomers) [85a]	55	53	–	0	0	–	–	–	–
CCC1(C(=O)NC(C)COc2ccccc2C#N)C(C)C1(Cl)Cl (mixture of isomers) [89b]	26	91	–	68	47	–	–	–	–
CCC1(C(=O)NCCCn2c(Cl)ccc2C#N)C(C)C1(Cl)Cl (stereo not drawn) [compound 152]	55	86	–	68	0	–	–	–	–
CC(COc1cc(F)ccc1OC(F)(F)C(F)F)NC(=O)C(C#N)C(C)(C=CF)CF (mixture of isomers) [compound 225]	–	–	–	–	–	91	100	5	86
C[C@H](COc1cc(Cl)ccc1F)NC(=O)C(C#N)C(C)(C)C (single isomer, unassigned) [198b]	59	100	5	28	–	–	–	–	–
CCC1(C(=O)NC(C)COc2cc(F)ccc2Cl)C(C)C1(Cl)Cl (stereo not drawn) [compound 253]	–	–	–	–	–	59	100	0	0
CCC1(C(=O)NCCCn2c(C#N)cc(Cl)c2Cl)C(C)C1(Cl)Cl (stereo not drawn) [compound 151]	0	91	–	0	0	–	–	–	–
Cc1ccc(Cl)c(OCC(C)NC(=O)C(C#N)C(C)(C=CF)CF)c1 (mixture of isomers) [compound 227]	–	–	–	–	–	0	100	0	0
CC(COc1c(F)c(F)cc(F)c1F)NC(=O)C(C#N)C(C)(C)C (mixture of isomers) [compound 195]	85	99	32	0	–	–	–	–	–
C[C@H](COc1cc(Cl)ccc1F)NC(=O)C(C#N)C(C)(C)C (single isomer, unassigned) [198a]	75	100	5	28	–	–	–	–	–
CCC1(C(=O)NC(C)COc2ccccc2)C(C)C1(Cl)Cl (mixture of isomers) [77a]	73	86	–	28	0	–	–	–	–
C#CC(C)(C)C(C#N)C(=O)NC(C)COc1cc(Cl)ccc1F (mixture of isomers) [compound 320]	–	–	–	–	–	59	100	0	68
CC(COc1cc(Cl)ccc1F)NC(=O)C(C#N)C(C)C(C)(C)C (mixture of isomers) [compound 199]	85	97	5	68	–	–	–	–	–
C=CC(C)(C)C(C#N)C(=O)N[C@H](C)COc1cc(Cl)ccc1F (single isomer, unassigned) [200b]	0	100	5	0	–	–	–	–	–
